Data on three molecules can be found in US20160333063A1, “SOLUBLE HIGH MOLECULAR WEIGHT (HMW) TAU SPECIES AND APPLICATIONS THEREOF” (THE GENERAL HOSPITAL CORPORATION, priority 2013, published 2016).

Common to all, as to assay type: cell-based, mouse
The subject of data set [1] is primary neuronal cultures. Nature of the data set: ToxiLight BioAssay for cell death. As to the method: ToxiLight BioAssay. Toxicity assays were conducted in medium collected from wild-type, Tau+/− and Tau−/− neurons plated in 96 well plates at 15 DIV using the ToxiLight BioAssay kit (Lonza, Rockland, Me.). Preparation of cell extracts and the cytotoxicity assay were performed according to manufacturer protocols. After centrifugation, 50 μl samples per well were transferred on an opaque white microtitre plate. To each well, 100 μl of the adenylate kinase detection reagent was added and the plate was incubated for 5 min at room temperature. After 5 min, luminescence was measured in the Wallac plate reader. Results are expressed as arbitrary relative light units (AU). To achieve 100% cell lysis (positive control) neurons were treated with 10% triton-X-100. […] Neurons for Toxilight assays were plated in 96 well plates using 3 wells per condition in duplicate across four separate culture experiments.

The subject of data set [2] is poly (ADP-ribose) polymerase (PARP). Nature of the data set: Western blot of cleaved PARP. The note with it: TgCM 24 hrs; STS 6 hours. As to the method: Treatment of neuronal cultures. Wild-type (from CD1 mice), Tau−/−, Tau+/−, and Tau+/+ cortical neurons were cultured in standard NB/B27 serum-free medium, and, at 14 DIV, the medium was replaced with diluted 1:3 CM from TgCM, corresponding to 4 nM of Aβ, or WtCM (0.16 nM of murine Aβ40) and further incubated for 24 hrs. […] In zVAD-FMK (Sigma Aldrich) experiments, 20 μM of the inhibitor was applied to cultures 20 minutes prior to exposure to WtCM, TgCM, or STS. To inhibit calcineurin, 1 μM FK506 (Enzo Life Sciences) was applied 20 minutes prior to exposure to WtCM, TgCM or STS. Media was then aspirated and RIPA buffer with phosphatase and protease inhibitors was added to each well. Cells were scraped to prepare lysates for Western blots.
(§1) Western Blot. Protein lysates were boiled in sample buffer consisting of LDS Sample Buffer and reducing Agent, resolved on 4%-12% Bis-Tris polyacrylamide precast gels in a MES-SDS running buffer containing antioxidant. For most analyses, 20 μg/lane were loaded. Gels were transferred onto nitrocellulose membranes (Whatman) in transfer buffer containing 20% methanol. […]

For another data set, the system named is PSD95. Nature of the data set: Western blot of PSD95. Conditions: co-treated with inhibitor. As to the method:
(§2) Treatment of neuronal cultures. Wild-type (from CD1 mice), Tau−/−, Tau+/−, and Tau+/+ cortical neurons were cultured in standard NB/B27 serum-free medium, and, at 14 DIV, the medium was replaced with diluted 1:3 CM from TgCM, corresponding to 4 nM of Aβ, or WtCM (0.16 nM of murine Aβ40) and further incubated for 24 hrs. To induce apoptosis, cultures were treated with staurosporine (Enzo Life Sciences) at a final concentration of 1 μM and were harvested 4 hours after treatment. In zVAD-FMK (Sigma Aldrich) experiments, 20 μM of the inhibitor was applied to cultures 20 minutes prior to exposure to WtCM, TgCM, or STS. To inhibit calcineurin, 1 μM FK506 (Enzo Life Sciences) was applied 20 minutes prior to exposure to WtCM, TgCM or STS. Media was then aspirated and RIPA buffer with phosphatase and protease inhibitors was added to each well. Cells were scraped to prepare lysates for Western blots.
as §1

Another data set deals with cytochrome c. Briefly: Western blot of cytochrome c in cytosolic fraction and mitochondrial pellet. Conditions: TgCM treated cultures plus inhibitor. As to the method:
as §2
Mitochondria Isolations. Mitochondria were isolated from neurons plated in 10 cm dishes treated with WtCM and TgCM and purified by centrifugation as previously described (Ofengeim et al., 2012). […] The protein concentration was determined by BCA assay (Thermo Scientific) in all fractions and this concentration used for loading gels for western blot analysis. […]

The next data set deals with BAD. Briefly: Western blot of phosphorylated BAD in treated primary cortical neurons. Conditions: TgCM treated cultures, inhibitor or Aβ immunodepletion. As to the method:
as §2, §1

The subject of a further data set is GFP transfected neurons. Nature of the data set: Spine density of GFP transfected neurons. As to the method: Analysis of spine density and spine morphology. Cultured neurons plated in 35 mm glass-bottomed dishes (MatTek) were transfected with green fluorescent protein (GFP) (Clontech) at 7 DIV and imaged at 15 DIV. High-resolution digital images were taken using a Zeiss LSM510 confocal microscope with a 25× water-immersion objective lens (digital zoom=3-5), and excitation laser at 488 nm. Images were analyzed with NeuronStudio software (CNIC, Mount Sinai School of Medicine). Spine density was defined as the number of spines per micrometer of dendrite length according previously published protocols (Wu et al., 2010) with modifications. Dendritic spine densities were calculated from 30 to 40 neurons per condition across four separate culture experiments. For each condition, measurements of spine densities were averaged per neuron; the means from multiple neurons were then averaged to obtain the mean±s.e.m. for the population of neurons.

In data set [3] the test system is tau cleaved at Asp421 (TauC3). Nature of the data set: Western blot of tau cleaved at Asp421 in treated primary cortical neurons. As to the method: as §2, §1
The subject of a further data set is caspase 3. Nature of the data set: Western blot of cleaved caspase 3 in treated primary cortical neurons. As to the method:
as §2
Western Blot. Protein lysates were boiled in sample buffer consisting of LDS Sample Buffer and reducing Agent, resolved on 4%-12% Bis-Tris polyacrylamide precast gels in a MES-SDS running buffer containing antioxidant. For most analyses, 20 μg/lane were loaded. Gels were transferred onto nitrocellulose membranes (Whatman) in transfer buffer containing 20% methanol. Blots were blocked in Odyssey blocking buffer (Li-Cor biosciences), followed by incubation with primary antibodies: mouse β-actin (Sigma; 1:10,000); rabbit cleaved caspase 3 (Cell Signaling; 1:1,000); rabbit caspase 3 (Cell Signaling; 1:1,000); mouse TauC3 (courtesy of Dr Lester Binder, 1:300); rabbit polyclonal Total Tau (Dako; 1:10,000), rabbit PSD95 (1:1,000; Cell Signaling), rabbit cleaved caspase 9 (1:1,000; Cell Signaling), mouse caspase 9 (1:1,000; Cell Signaling), rabbit pBAD (1:1,000; Cell Signaling), rabbit BAD (1:1,000; Cell Signaling), VDAC (1:1,000; Cell Signaling), mouse cytochrome c (1:1,000; BD Pharmingen), mouse BAX (1:1,000; Santa Cruz), rabbit cleaved PARP (1:1,000; Cell Signaling), rabbit PARP (1:1,000; Cell Signaling). […]

Another data set relates to caspase 9. Briefly: Western blot of cleaved caspase 9 in treated primary cortical neurons. Conditions: TgCM treated cultures, inhibitor or Aβ immunodepletion. As to the method:
as §2, §1
In general terms: In western blotting, separated proteins are transferred to a membrane and probed.

[4] abbreviates: STS 1 μM plus caspase inhibition.
Where [5] appears, read: TgCM (4 nM Aβ) 24 hrs, inhibitor applied 20 minutes prior.

Where a SMILES comes first, the peptide text is derived from it. The star is where a group is joined. Cbz = O=C(OCc1ccccc1)*; CH2F = FC*

Regarding `CN[C@@H]1C[C@H]2O[C@@](C)([C@@H]1OC)n1c3ccccc3c3c4c(c5c6ccccc6n2c5c31)C(=O)NC4` [STS, staurosporine], the “cell death (release of adenylate kinase)” value in data set [1] (compared to control) is given as “cell death was induced”. For the same molecule, the “cleaved PARP” value in data set [2] is on record as “induced PARP cleavage”.

As for `COC(=O)C[C@H](NC(=O)[C@H](C)NC(=O)[C@@H](NC(=O)OCc1ccccc1)C(C)C)C(=O)CF` [zVAD-FMK] (Cbz-Val-Ala-Asp(OMe)-CH2F), the “PSD95 levels in neurons exposed to TgCM” value in the data set with PSD95 is reported as “preserved”. The “levels of cytochrome c in the cytosol or mitochondrial pellet” value with cytochrome c is reported as “did not alter levels of cytochrome c”. The STS-induced cell death result in data set [1] (STS plus inhibitor) is listed as “blocked”. The “TgCM-induced dephosphorylation of BAD” value in the data set with BAD is recorded as “did not prevent dephosphorylation of BAD”. For the same molecule, the “spine loss triggered by TgCM” value in the data set with GFP transfected neurons (TgCM treated neurons plus inhibitor) was “fully blocked the spine loss”. Also, the “spine density in WtCM exposed neurons” value in the data set on GFP transfected neurons (WtCM plus inhibitor) is reported as “significant increase in spine density”. Moreover, in data set [3] (setting [4]), the “tau cleavage in STS treated cells” value is given as “reduced tau cleavage”. Moreover, the “TauC3 levels / tau cleavage in TgCM exposed neurons” value in [3] (setting [5]) is “no increase”. Besides, the “caspase 3 activation in STS treated cells” value with caspase 3 (setting [4]) was “reduced activation of caspase 3”. In addition, the “caspase 3 activation in TgCM exposed neurons” value in the data set on caspase 3 (setting [5]) is listed as “no increase”. For the same molecule, the “Aβ-induced caspase 9 activation” value in the data set on caspase 9 was “blocked”.

As for `C=CC[C@@H]1/C=C(\C)C[C@H](C)C[C@H](OC)[C@H]2O[C@@](O)(C(=O)C(=O)N3CCCC[C@H]3C(=O)O[C@H](/C(C)=C/[C@@H]3CC[C@@H](O)[C@H](OC)C3)[C@H](C)[C@@H](O)CC1=O)[C@H](C)C[C@@H]2OC` [FK506], the “caspase 3 activation, tau cleavage, caspase 9 activation and BAD dephosphorylation in WtCM treated cultures” value in the data set with caspase 3 (WtCM plus inhibitor) was “no effect”.
